The text below walks through data of US6514942B1, “Methods and compositions for stimulating T-lymphocytes” (The Board of Regents, The University of Texas System, priority 1995, dated 2003).

In one assay the target is T1, HLA-A2 of T2 cells (Homo sapiens, UniProt P04439, D140Y/D185E/D98H/E176V/E277Q/G131W/G231S/I119V/I121R/I166T/I218V/L300P/L318F/N151K/N90K/P208A/P217A/Q86G/Q94H/R138H/R169H/T345S).
T1 construct: cell surface expression of HLA-A2 is lower (30-40%) than in normal LBL lines transfected with HLA-A2; endogenous in cells; host or cells: T2 (transport deletion mutant) human lymphoblastoid cells, obtained from Dr. Peter Creswell
The assay can be described thus: Reactivity of MA2.1 mAb with T2 cells after culture with peptide (immunofluorescence, FL1). It is filed as cell-based. Particulars: for FL1 of T2 cells stained with MA2.1 mAb: peptide 50 μg/ml, overnight culture in IMDM-FCS. On the procedure: FIG. 5A. Effects of HER-2 peptides on reactivity of MA2.1 mAb with T2 cells. Fluorescence analysis and determination of FL1 were performed as described (Stauss et al., 1992). Peptides were added to T2 cells at 50 μg/ml (final concentration). After overnight culture, in IMDM-FCS, cells were washed and the levels of HLA-A2 expression were determined using HLA-A2 specific mAb.
mAbs to CD3 (OKT3-FITC), CD4 (OKT4-FITC) and CD8 (OKT8-FITC) were obtained from Ortho Diagnostic (Ortho, Raritan, N.J.), mAb W6/32 (anti-HLA, -A, -B, -C) from Dako (Dako-Dakopatts, Denmark); HLA-A2 reacting mAb BB7.2 and MA2.1 from ATCC. Immunofluorescence studies were performed as described in Example 1.
To determine whether these peptides and longer analogs affect HLA-A2 conformation as an indication of HLA-A2 binding, the effects of HER-2 peptides on the reactivity of conformationally dependent mAb MA2.1 and BB.7.2 were examined with HLA-A2 of T2 cells. The human cell line T2 has a defect affecting endogenous peptide loading of MHC class I molecules. As a consequence, cell surface expression of HLA-A2 is lower (30-40%) than in normal LBL lines transfected with HLA-A2 (e.g., C1R) but the reactivity of MA2.1 and BB.7.2 mAb is increased when certain HLA-A2 binding peptides are added to the culture medium (Anderson et al., 1993). Although most human MHC class I molecules cannot be induced at the low temperatures used for their murine counterparts because of fundamental structural differences between human and mouse class I (Anderson et al., 1993), the fact that they express few endogenous (mainly signal) peptides (Zweerink et al., 1993) increases the sensitivity of detection of peptide-HLA-A2 interaction.

Assay [1] has as its system C1R:A2 cells. Kind of assay: Ag specificity of the 41.CD8+ CTL line on peptide-pulsed targets. Type of assay: cell-based, human. Particulars: peptide-pulsed C1R:A2, E:T 10:1. Here is the method: FIG. 2A. Ag specificity of the 41.CD8^+ CTL line. C1R:A2 cells were pre-pulsed with either HER-2 peptides or control MUC-1 peptides before being incubated with effectors. The effector to target ratio was 10:1. C1R:A1 and C1R:A3 targets were pre-pulsed with the same peptides in the same conditions as C1R:A2 cells. Results for C1R:A1 and C1R:A3 show the difference between specific lysis of targets preincubated with peptides and control C1R:A1 and C1R:A3 targets. Specific lysis of control C1R:A1 and C1R:A3 cells was less than 10% at the same E:T ratio. Shown in FIG. 2A are results after 4 hrs' incubation.
(§1) Tumor cells and fibroblasts were labeled with 200 μCi of ^51Cr (Na^51CrO4; Amersham, Arlington Heights, Ill.) for 90 min at 37° C. (Ioannides et al., 1991). Lymphoblastoid cells and HLA-A2 transfectants were labeled overnight in RPMI-FCS, then washed three times and incubated with effector cells in RPMI-FCS in an incubator with 5%. CO2 (Bednarek et al., 1991; Gammon et al., 1992). When peptide recognition was determined, targets were incubated with 25 μM of peptides overnight during ^51Cr labeling or with 10 μM peptide for 2 h at 37° C. in RPMI-FCS then washed three times before being incubated with effector cells. Separate controls for spontaneous and total lysis were made for each peptide-pulsed target (Ioannides et al., 1991; Bednarek et al., 1991; Gammon et al., 1992). After 4-5 h, 100 μl of supernatant was collected and counted. To determine maximum lysis in 20-h assays, plates were left undisturbed in the incubator and the supernatant was collected after overnight incubation. For cold target inhibition studies, C1R:A2 cells were preincubated with HER-2 or control peptides overnight, then washed and admixed with ^51Cr-labeled targets at 2:1 and 6:1 (cold:hot targets) ratios. Percentage lysis was calculated from the formula: 100×[(E−S)/(T−S)], where E is experimental release, S is release in the absence of CTL, and T is release in 2 M HCl.
These cultures were propagated and expanded by periodic cycles of restimulation with peptide-pulsed fresh autologous PBMC as antigen-presenting cells. After the fourth stimulation cells were gradually adapted to growth in RPMI-FCS by replacing 25% of the culture medium every 3 days with RPMI-FCS over a period of 2 weeks. CD3^+CD8^+CD4^− cells were isolated from bulk CTL cultures by positive selection on anti-CD8 mAb-coated culture flasks (AIS Micro CELLector, Applied Immune Sciences, Menlo Park, Calif.) as described (Letessier et al., 1991). Isolated CD8^+ cells were restimulated with HER-2 peptide-pulsed PBMC, either autologous or in some instances allogeneic that matched only HLA-A2 with the responding cells. […]

In assay [2] the test system is C1R:A2 cells. Kind of assay: In vitro induction of peptide-reactive CTL from PBMC, 51Cr release on peptide-pulsed C1R:A2. Type of assay: cell-based, human. The settings on record: PBMC stimulated with the peptide.
Assay [3] has as its target T2, HLA-A2 on indicator T2 cells (Homo sapiens, UniProt P04439, D140Y/D185E/D98H/E176V/E277Q/G131W/G231S/I119V/I121R/I166T/I218V/L300P/L318F/N151K/N90K/P208A/P217A/Q86G/Q94H/R138H/R169H/T345S).
T2 construct: cell surface expression of HLA-A2 is lower (30-40%) than in normal LBL lines transfected with HLA-A2; endogenous in cells; host or cells: T2 (transport deletion mutant) human lymphoblastoid cells, obtained from Dr. Peter Creswell
The assay can be described thus: Stabilization of HLA-A2 expression on indicator line T2. Type of assay: cell-based. The settings on record: indicator T2 cells. The source says: Since HER-2 is a self-antigen, during thymic selection, a number of T-cells carrying receptors with high affinity for the HLA-peptide complex are silenced either by elimination ro tolerization. A pre-condition for induction of a high affinity TCR-(MHC+peptide) interactions, is a stable (MHC+peptide) complex. […] However, stabilization of HLA-Class I binding by exogenously added peptide is dependent on introduction of dominant anchors in positions P2 and P9 which are not recognized by TCR.
Peptide D113, […] (SEQ ID NO:17), is the natural nonapeptide […].

In assay [4] the test system is OVA-16 (HLA-A2+, HER-2high) ovarian tumor. The assay can be described thus: Cold target inhibition of OVA-16 lysis by 41.CD8+ CTL with peptide-pulsed C1R:A2 cells. The settings on record: cold:hot 2:1, E:T 10:1, 4- and 20-h assays. Type of assay: cell-based, human. Here is the method: FIG. 4A. Target specificity of the 41.CD8^+ CTL were tested for the ability to lyse 5^1Cr-labeled OVA-16 at an E:T ratio of 10:1. C1R:A2 cells (A2.1) were incubated with synthetic peptides (D125, C43, C85), washed, and used in cold target inhibition studies at a cold:hot ratio of 2:1. Cytotoxicity studies were performed for 5 hr. Results represent the mean of three determinations. The variability between samples was less than 10%. The differences between determination are statistically significant (P<0.03) as determined by Student's t test. Percentage inhibition is indicated in parentheses.
FIG. 4B. Target specificity of the 41.CD8^+ CTL were tested for the ability to lyse ^51Cr-labeled OVA-16 at an E:T ratio of 10:1. C1R:A2 cells (A2.1) were incubated with synthetic peptides (D125, C43, C85), washed, and used in cold target inhibition studies at a cold:hot ratio of 2:1. Cytotoxicity studies were performed for 20 hr. Results represent the mean of three determinations. The variability between samples was less than 10%. The differences between determination are statistically significant (P<0.03) as determined by Student's t test. Percentage inhibition is indicated in parentheses.
as §1
To confirm that the 41.CD8^+ CTL line recognizes epitopes on HER-2^high tumors contained on peptides used for stimulation, cold target inhibition studies were performed. […]

A further assay relates to CTL-34. The assay can be described thus: Recognition of HER-2 peptides by ovarian tumor associated CTL (lysis of peptide-sensitized targets). Type of assay: cell-based, human.
The test system of the next assay is three HLA-A2+ CTL lines. Kind of assay: Recognition of nonapeptides by CTLs associated with and lysing ovarian tumors. It is filed as cell-based, human. The settings on record: for CTL lines recognizing the peptide: of three HLA-A2+ CTL lines; for designation based on the levels of lysis induced: three HLA-A2+ CTL lines.

“Also recorded” adds a separate entry of the source.

Experimental for CTL-34: Target cells were labeled with ^51Cr (Na^51CrO4; Amersham, Arlington Heights, Ill.) for 90 min at 37° C. (Ioannides et al., 1991; Ioannides et al., 1991), or overnight in RPMI medium, containing 10% FCS, 100 μg/ml L-glutamine and 40 μg/ml gentamycin (RPMI-FCS), then washed and incubated with the effector cells in complete RPMI-FCS in an incubator with 5% CO2. Targets were incubated either with 25 μM of peptide overnight during labeling, or with 10 μM peptide for 2 h at 37° C. in RPMI-FCS, then washed three times before being incubated with effector cells. Separate controls for spontaneous and total lysis of targets were made for each peptide pulsed target (Ioannides et al., 1993; Fisk et al., 1994; Gammon et al., 1992). After 4-5 h of incubation 100 μl of supernatant were collected and counted. Percent lysis was calculated from the formula: 100×[(E−S)/(T−S)], were E=experimental release, S=release in the absence of CTL, T=release in 2 M HCl.

Turning to “LVSEFSRMARDPQ [Peptide B69, HER-2:972-984]”, in the assay with HLA-A2 of T2 cells, the “FL1 of T2 cells stained with MA2.1 mAb” value was “failed to significantly increase FL1”.
Still for that read-out and setting: the result for “LQVFETLEEITGYL [Peptide D120, HER-2:397-410]” reads “increased the FL1 only slightly”.
For the sequence “SLADPAHGV [Peptide D132, control analog of Muc-1 core peptide with introduced P2 anchor, reference compound]”, the “recognition by 41.CD8+ CTL line” value in the assay with C1R:A2 cells [1] is listed as “at a much lesser extent”.
With “NLGPWIQQV [Peptide E38, reference compound]”, the “FL1 of T2 cells stained with MA2.1 mAb” value in the assay with HLA-A2 of T2 cells was “very high increase in FL1”.
Take “QLQVFETLEEI [Peptide D122, HER-2:396-406]”: the “FL1 of T2 cells stained with MA2.1 mAb” value with HLA-A2 of T2 cells is on record as “increased the FL1 only slightly”.
Turning to “RLLYQGCQVV [Peptide D114, HER-2:47-56(48H→L) analog]”, the “Ag specificity of CTL response induced by the peptide” value with C1R:A2 cells [2] was “lacked Ag specificity”. In addition, in assay [3], the “stabilization of HLA-A2” value is listed as “little improvement on stabilization of HLA-A2”. For the same sequence, the “FL1 of T2 cells stained with MA2.1 mAb” value in the assay with HLA-A2 of T2 cells is given as “increased FL1 even further; also recorded: higher increase in reactivity of MA2.1 mAb with HLA-A2 than D96/D97”. In addition, the “reactivity of MA2.1 mAb with HLA-A2” value with HLA-A2 of T2 cells (study repeated with peptides dissolved in DMSO) was “unable to increase reactivity”.
For the sequence “GLTSAPDTRV [Peptide D125, control analog of Muc-1 core peptide (Muc-1:8-17) with introduced HLA-A2 anchors, reference compound]”, the “recognition by 41.CD8+ CTL line” value in the assay on C1R:A2 cells [1] is listed as “at a much lesser extent”. Also, in assay [4], the “inhibition of tumor lysis by peptide-pulsed cold targets” value is on record as “inability of C1R:A2 cells alone or pulsed with D125 to mediate the same inhibition”.
Regarding “LLSLALMLL [Peptide E41, reference compound]”, the “FL1 of T2 cells stained with MA2.1 mAb” value with HLA-A2 of T2 cells was “failed to induce an increase in FL1”.
For the sequence VLVKSPNHV [Peptide E89, HER-2:851-859], in the assay with CTL-34, the “% of C85 (target lysis by CTL in the presence of peptide as % of positive control C85)” value (“% of C85” for short) was 1.149 % of C85. Moreover, in the assay on three HLA-A2+ CTL lines, the “CTL lines recognizing the peptide” value is given as 2/3 and the “designation based on the levels of lysis induced” value was “high”.
Turning to “RIAWARTEL [Peptide E37, reference compound]”, the “FL1 of T2 cells stained with MA2.1 mAb” value with HLA-A2 of T2 cells is “failed to affect MA2.1 epitope expression”.
As for “DLGMGAAKGL [Peptide D99, decapeptide HER-2:1089-1098]”, in the assay with HLA-A2 of T2 cells, the “FL1 of T2 cells stained with MA2.1 mAb” value is “slight increase in FL1”.
With PLQPEQLQV [Peptide E77, HER-2:391-399], the “% of C85” value with CTL-34 was 0.300 % of C85. Moreover, in the assay with three HLA-A2+ CTL lines, the “CTL lines recognizing the peptide” value is listed as 2/3 and the “designation based on the levels of lysis induced” value is on record as “moderate”.
Taken in the same sequence, the figures for QLMPYGCLL [Peptide E71, HER-2:798-806] were 0.600 % of C85, 2/3 and “high”.
For CLTSTVQLV [Peptide E90, HER-2:788-796], in the assay with CTL-34, the “% of C85” value was 1.149 % of C85.
In the case of “ELVSEFSKV [Peptide C83, C85 analog with strengthened P9 and P8]”, in the assay with HLA-A2 of T2 cells, the “FL1 of T2 cells stained with MA2.1 mAb” value is recorded as “did not increase further the FL1”.
The same measure, in the same setting: the result for “EIWTHSTKV [Peptide E39, reference compound]” reads “moderate increase in FL1”; that for “SLALMLLWL [Peptide E40, reference compound]”, “failed to induce an increase in FL1”.
